{"source": "patent US7749955B2", "about": "“Separation of polypeptides comprising a racemized amino acid” (Novo Nordisk A/S, priority 2003, dated 2010)", "experiment": "isoelectric pH of the peptide (isoelectric precipitation)", "format": "physicochemical", "conditions": "pH at which the peptide was precipitated after chromatography", "from_the_text": "Arg^34GLP-1(7-37) was expressed in yeast (S. cerevisiae) by conventional recombinant technology as described elsewhere (WO 98/08871). Arg^34GLP-1(7-37) in the fermentation broth was then purified by conventional reversed phase chromatography and subsequently precipitated at the isoelectric pH of the peptide, i.e. at pH 5.4. The precipitate was isolated by centrifugation. Following another RP-LC purification step and isoelectric precipitation, the Arg^34GLP-1(7-37) peptide was acylated as decribed in WO 00/55119 to give the GLP-1 derivative Arg^34Lys^26N^ε(γ-Glu(N^α-hexadecanoyl))GLP-1(7-37).\nL17K, K30R-GLP2(1-33) was expressed in yeast (S. cerevisiae) by conventional recombinant technology in a similar manner as described in WO 98/08871 for GLP-1 peptides. L17K, K30R-GLP2(1-33) in the fermentation broth was then purified by conventional aniaon exchange and reversed phase chromatography and subsequently precipitated at the isoelectric pH of the peptide, i.e. at pH 4. The precipitate was isolated by centrifugation. D-His-L17K, K30R-GLP2(1-33) was prepared by solid phase synthesis.", "data": [{"substance": "Arg^34GLP-1(7-37)", "values": [{"measurement": "isoelectric pH of the peptide", "result": 5.4, "unit": "pH"}]}, {"substance": "L17K, K30R-GLP2(1-33) (HADGSFSDEMNTILDNKAARDFINWLIQTRITD; Glucagon-like peptide 2; UniProt P01275 146-178, looked up, variant L17K K30R) [GLP-2 analogue expressed in yeast]", "values": [{"measurement": "isoelectric pH of the peptide", "result": 4, "unit": "pH"}]}]}
